Assays:
[1] = target: Phosphatidylinositol 4,5-bisphosphate 3-kinase catalytic subunit gamma isoform (Homo sapiens) (UniProt P48736); conditions: Compound concentration 1000.0 nM
[2] = target: Misshapen-like kinase 1 (Homo sapiens) (UniProt Q8N4C8); conditions: Compound concentration 1000.0 nM
[3] = target: Serine/threonine-protein kinase NIM1 (Homo sapiens) (UniProt Q8IY84); conditions: Compound concentration 1000.0 nM
[4] = target: Serine/threonine-protein kinase Nek1 (Homo sapiens) (UniProt Q96PY6); conditions: Compound concentration 1000.0 nM
[5] = target: Phosphatidylinositol 4,5-bisphosphate 3-kinase catalytic subunit delta isoform (Homo sapiens) (UniProt O00329); conditions: Compound concentration 1000.0 nM
[6] = target: D(2) dopamine receptor (Homo sapiens) (UniProt P14416); conditions: Compound concentration 10.0 uM
[7] = target: Serine/threonine-protein kinase ULK2 (Homo sapiens) (UniProt Q8IYT8); conditions: Compound concentration 1000.0 nM
[8] = target: Serine/threonine-protein kinase Nek5 (Homo sapiens) (UniProt Q6P3R8); conditions: Compound concentration 1000.0 nM
Chain of Serine/threonine-protein kinase Nek5 (Homo sapiens) (Q6P3R8 whole entry): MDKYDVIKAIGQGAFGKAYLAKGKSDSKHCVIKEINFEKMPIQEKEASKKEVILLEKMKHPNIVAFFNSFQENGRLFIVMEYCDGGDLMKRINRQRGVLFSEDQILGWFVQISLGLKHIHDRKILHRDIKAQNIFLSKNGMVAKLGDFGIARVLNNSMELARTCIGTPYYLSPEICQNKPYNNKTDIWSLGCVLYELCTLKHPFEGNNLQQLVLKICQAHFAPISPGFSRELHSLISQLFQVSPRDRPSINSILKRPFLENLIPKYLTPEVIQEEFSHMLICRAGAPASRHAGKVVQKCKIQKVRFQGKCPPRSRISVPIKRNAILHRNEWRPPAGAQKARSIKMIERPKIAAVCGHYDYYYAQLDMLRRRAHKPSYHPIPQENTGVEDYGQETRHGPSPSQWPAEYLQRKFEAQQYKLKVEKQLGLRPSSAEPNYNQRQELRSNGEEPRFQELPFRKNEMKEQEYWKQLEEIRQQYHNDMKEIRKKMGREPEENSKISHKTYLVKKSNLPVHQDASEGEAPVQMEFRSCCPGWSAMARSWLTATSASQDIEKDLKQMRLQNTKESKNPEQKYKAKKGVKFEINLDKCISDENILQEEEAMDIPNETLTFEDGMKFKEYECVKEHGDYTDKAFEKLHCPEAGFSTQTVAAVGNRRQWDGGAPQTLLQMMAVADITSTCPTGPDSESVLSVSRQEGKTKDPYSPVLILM

[9] = tested on: Receptor-type tyrosine-protein kinase FLT3 (Homo sapiens), P36888 [D835H]; conditions: Compound concentration 1000.0 nM
[10] = tested on: Mast/stem cell growth factor receptor Kit (Homo sapiens), P10721 [D816V]; conditions: Compound concentration 1000.0 nM
[11] = target: Membrane-associated tyrosine- and threonine-specific cdc2-inhibitory kinase (Homo sapiens) (UniProt Q99640); conditions: Compound concentration 1000.0 nM
Chain of Membrane-associated tyrosine- and threonine-specific cdc2-inhibitory kinase (Homo sapiens) (Q99640 whole entry): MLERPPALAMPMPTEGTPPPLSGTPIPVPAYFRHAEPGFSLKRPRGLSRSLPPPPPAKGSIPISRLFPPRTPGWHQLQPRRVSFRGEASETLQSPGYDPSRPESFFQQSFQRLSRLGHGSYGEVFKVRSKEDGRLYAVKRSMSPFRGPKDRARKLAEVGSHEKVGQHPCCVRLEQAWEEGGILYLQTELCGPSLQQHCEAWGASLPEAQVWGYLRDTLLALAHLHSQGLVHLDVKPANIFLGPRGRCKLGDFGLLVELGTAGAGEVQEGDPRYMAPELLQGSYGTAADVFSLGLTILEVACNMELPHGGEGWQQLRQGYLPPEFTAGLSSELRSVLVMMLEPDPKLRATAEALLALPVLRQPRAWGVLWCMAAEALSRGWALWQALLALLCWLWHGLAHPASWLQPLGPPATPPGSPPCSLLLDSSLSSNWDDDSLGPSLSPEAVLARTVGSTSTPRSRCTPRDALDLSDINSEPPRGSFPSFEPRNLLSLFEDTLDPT

[12] = target: Serine/threonine-protein kinase MARK1 (Homo sapiens) (UniProt Q9P0L2); conditions: Compound concentration 1000.0 nM
[13] = target: Transient receptor potential cation channel subfamily M member 6 (Homo sapiens) (UniProt Q9BX84); conditions: Compound concentration 1000.0 nM
Chain of Transient receptor potential cation channel subfamily M member 6 (Homo sapiens) (Q9BX84 whole entry): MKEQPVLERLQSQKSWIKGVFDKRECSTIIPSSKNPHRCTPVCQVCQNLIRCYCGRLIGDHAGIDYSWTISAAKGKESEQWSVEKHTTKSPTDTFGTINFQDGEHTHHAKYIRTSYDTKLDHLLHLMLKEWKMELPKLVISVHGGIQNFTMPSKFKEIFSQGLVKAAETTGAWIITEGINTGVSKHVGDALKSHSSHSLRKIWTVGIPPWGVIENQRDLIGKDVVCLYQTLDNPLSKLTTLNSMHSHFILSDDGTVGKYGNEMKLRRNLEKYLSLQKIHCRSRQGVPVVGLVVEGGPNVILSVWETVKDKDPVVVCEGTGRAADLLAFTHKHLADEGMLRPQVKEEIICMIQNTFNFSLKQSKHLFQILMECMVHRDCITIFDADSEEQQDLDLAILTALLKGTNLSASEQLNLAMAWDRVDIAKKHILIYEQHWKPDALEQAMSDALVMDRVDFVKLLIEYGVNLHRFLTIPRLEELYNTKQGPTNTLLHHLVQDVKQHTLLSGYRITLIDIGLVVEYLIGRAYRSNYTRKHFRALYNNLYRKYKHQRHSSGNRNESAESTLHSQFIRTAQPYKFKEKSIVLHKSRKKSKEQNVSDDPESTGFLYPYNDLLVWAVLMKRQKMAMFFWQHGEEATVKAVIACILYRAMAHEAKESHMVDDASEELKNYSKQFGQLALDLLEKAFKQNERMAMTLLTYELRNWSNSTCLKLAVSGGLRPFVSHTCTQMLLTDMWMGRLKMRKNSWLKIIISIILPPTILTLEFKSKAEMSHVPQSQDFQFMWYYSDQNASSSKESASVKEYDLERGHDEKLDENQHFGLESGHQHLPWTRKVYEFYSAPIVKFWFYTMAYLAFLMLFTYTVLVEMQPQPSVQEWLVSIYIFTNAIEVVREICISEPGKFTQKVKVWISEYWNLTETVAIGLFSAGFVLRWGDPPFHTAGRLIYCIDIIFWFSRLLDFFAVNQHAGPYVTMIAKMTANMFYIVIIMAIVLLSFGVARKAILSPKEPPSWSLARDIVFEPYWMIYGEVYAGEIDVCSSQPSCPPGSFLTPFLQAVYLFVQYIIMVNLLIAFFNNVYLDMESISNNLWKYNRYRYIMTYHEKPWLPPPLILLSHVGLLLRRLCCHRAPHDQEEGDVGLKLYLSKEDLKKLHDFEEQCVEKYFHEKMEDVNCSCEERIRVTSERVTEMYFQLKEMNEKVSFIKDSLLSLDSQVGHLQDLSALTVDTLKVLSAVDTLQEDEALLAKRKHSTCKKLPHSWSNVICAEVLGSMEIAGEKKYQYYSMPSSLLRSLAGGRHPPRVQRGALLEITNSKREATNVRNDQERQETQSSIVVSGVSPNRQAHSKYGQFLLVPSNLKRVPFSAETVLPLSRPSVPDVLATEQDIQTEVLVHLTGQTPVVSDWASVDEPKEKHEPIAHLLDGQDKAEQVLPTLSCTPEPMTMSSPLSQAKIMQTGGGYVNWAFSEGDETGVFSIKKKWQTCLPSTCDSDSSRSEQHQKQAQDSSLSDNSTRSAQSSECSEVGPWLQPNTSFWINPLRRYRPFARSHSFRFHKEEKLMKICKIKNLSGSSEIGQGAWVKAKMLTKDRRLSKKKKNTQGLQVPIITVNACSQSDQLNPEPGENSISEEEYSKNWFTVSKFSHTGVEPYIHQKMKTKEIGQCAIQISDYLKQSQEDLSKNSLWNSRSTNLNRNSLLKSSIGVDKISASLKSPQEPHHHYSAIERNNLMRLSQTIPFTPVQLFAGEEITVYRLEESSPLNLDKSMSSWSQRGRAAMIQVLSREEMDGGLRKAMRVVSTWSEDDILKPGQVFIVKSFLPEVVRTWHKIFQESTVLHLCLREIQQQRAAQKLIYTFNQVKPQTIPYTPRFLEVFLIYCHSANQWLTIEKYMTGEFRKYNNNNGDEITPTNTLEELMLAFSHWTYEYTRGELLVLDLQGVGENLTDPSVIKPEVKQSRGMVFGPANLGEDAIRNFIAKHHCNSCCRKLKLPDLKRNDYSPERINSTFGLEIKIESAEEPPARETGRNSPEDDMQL

[14] = tested on: Receptor-type tyrosine-protein kinase FLT3 (Homo sapiens), P36888 [K663Q]; conditions: Compound concentration 1000.0 nM
[15] = target: Ephrin type-A receptor 6 (Homo sapiens) (UniProt Q9UF33); conditions: Compound concentration 1000.0 nM
[16] = target: Calcium/calmodulin-dependent protein kinase kinase 2 (Homo sapiens) (UniProt Q96RR4); conditions: Compound concentration 1000.0 nM
[17] = target: Casein kinase II subunit alpha' (Homo sapiens) (UniProt P19784); conditions: Compound concentration 1000.0 nM
[18] = target: Tyrosine-protein kinase FRK (Homo sapiens) (UniProt P42685); conditions: Compound concentration 1000.0 nM
[19] = target: cAMP-dependent protein kinase catalytic subunit alpha (Homo sapiens) (UniProt P17612); conditions: Compound concentration 1000.0 nM
[20] = target: Serine/threonine-protein kinase 10 (Homo sapiens) (UniProt O94804); conditions: Compound concentration 1000.0 nM
Chain of Serine/threonine-protein kinase 10 (Homo sapiens) (O94804 whole entry, looked up): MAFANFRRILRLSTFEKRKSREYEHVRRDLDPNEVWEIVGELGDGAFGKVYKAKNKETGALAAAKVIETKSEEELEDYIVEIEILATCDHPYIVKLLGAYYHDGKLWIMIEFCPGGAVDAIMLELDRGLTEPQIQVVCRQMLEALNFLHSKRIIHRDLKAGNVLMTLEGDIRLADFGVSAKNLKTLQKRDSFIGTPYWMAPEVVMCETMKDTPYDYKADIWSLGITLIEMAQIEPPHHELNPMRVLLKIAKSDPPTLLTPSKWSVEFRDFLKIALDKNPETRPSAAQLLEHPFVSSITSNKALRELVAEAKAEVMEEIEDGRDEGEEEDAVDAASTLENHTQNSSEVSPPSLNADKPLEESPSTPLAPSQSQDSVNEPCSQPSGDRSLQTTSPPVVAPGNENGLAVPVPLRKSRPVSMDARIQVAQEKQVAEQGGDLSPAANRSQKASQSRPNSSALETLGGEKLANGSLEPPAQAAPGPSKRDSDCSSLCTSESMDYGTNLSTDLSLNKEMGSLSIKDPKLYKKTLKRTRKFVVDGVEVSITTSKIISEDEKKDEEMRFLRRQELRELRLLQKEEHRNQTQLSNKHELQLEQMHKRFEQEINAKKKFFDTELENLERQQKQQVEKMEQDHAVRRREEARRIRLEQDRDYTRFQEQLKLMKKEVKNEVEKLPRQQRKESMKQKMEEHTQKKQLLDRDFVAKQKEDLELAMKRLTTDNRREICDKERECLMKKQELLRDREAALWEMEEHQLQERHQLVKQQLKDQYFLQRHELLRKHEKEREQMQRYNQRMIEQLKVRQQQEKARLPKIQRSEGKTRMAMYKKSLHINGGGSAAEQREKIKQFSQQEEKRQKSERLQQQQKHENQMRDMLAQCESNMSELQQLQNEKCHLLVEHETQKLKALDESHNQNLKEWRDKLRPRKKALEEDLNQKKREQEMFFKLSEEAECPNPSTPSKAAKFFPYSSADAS

[21] = target: Phosphatidylinositol 5-phosphate 4-kinase type-2 beta (Homo sapiens) (UniProt P78356); conditions: Compound concentration 1000.0 nM
Chain of Phosphatidylinositol 5-phosphate 4-kinase type-2 beta (Homo sapiens) (P78356 whole entry): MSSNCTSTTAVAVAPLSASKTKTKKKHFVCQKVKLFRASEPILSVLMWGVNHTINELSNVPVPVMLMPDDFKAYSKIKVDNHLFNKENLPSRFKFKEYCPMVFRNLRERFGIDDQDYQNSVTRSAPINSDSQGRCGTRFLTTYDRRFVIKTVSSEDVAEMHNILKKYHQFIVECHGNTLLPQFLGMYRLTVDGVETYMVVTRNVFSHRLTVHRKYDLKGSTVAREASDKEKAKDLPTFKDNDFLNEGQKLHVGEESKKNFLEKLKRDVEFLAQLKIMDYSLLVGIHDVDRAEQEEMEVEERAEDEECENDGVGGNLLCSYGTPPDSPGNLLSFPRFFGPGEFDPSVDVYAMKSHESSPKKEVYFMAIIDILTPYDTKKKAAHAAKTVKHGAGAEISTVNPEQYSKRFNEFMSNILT

[22] = target: Inhibitor of nuclear factor kappa-B kinase subunit epsilon (Homo sapiens) (UniProt Q14164); conditions: Compound concentration 1000.0 nM
[23] = tested on: Receptor-type tyrosine-protein kinase FLT3 (Homo sapiens), P36888 [D835V]; conditions: Compound concentration 1000.0 nM
[24] = target: Mitogen-activated protein kinase 13 (Homo sapiens) (UniProt O15264); conditions: Compound concentration 1000.0 nM
[25] = target: Serine/threonine-protein kinase 16 (Homo sapiens) (UniProt O75716); conditions: Compound concentration 1000.0 nM
[26] = target: Serine/threonine-protein kinase MRCK alpha (Homo sapiens) (UniProt Q5VT25); conditions: Compound concentration 1000.0 nM
[27] = target: Phosphorylase b kinase regulatory subunit alpha, liver isoform (Homo sapiens) (UniProt P46019); conditions: Compound concentration 1000.0 nM
[28] = tested on: Tyrosine-protein kinase ABL1 (Homo sapiens), P00519 [T315I]; conditions: Compound concentration 1000.0 nM
[29] = target: cAMP-dependent protein kinase catalytic subunit PRKX (Homo sapiens) (UniProt P51817); conditions: Compound concentration 1000.0 nM
[30] = target: Cyclin-dependent kinase 2 (Homo sapiens) (UniProt P24941); conditions: Compound concentration 1000.0 nM
[31] = target: Aurora kinase A (Homo sapiens) (UniProt O14965); conditions: Compound concentration 1000.0 nM
Chain of Aurora kinase A (Homo sapiens) (O14965 whole entry): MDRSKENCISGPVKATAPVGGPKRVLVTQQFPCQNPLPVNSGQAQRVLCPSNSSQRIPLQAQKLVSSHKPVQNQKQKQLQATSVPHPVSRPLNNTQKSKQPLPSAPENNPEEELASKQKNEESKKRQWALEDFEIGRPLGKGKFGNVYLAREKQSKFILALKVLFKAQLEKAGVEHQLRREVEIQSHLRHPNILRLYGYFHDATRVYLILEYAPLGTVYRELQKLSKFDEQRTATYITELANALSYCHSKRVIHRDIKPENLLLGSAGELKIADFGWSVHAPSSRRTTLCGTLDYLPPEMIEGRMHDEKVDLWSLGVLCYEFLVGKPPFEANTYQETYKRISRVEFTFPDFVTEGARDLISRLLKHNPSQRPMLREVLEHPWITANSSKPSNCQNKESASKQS

[32] = target: Serine/threonine-protein kinase Nek6 (Homo sapiens) (UniProt Q9HC98); conditions: Compound concentration 1000.0 nM
[33] = target: Maternal embryonic leucine zipper kinase (Homo sapiens) (UniProt Q14680); conditions: Compound concentration 1000.0 nM
[34] = target: High affinity nerve growth factor receptor (Homo sapiens) (UniProt P04629); conditions: Compound concentration 1000.0 nM
[35] = target: Serine/threonine-protein kinase 38-like (Homo sapiens) (UniProt Q9Y2H1); conditions: Compound concentration 1000.0 nM
[36] = target: Serine/threonine-protein kinase TAO3 (Homo sapiens) (UniProt Q9H2K8); conditions: Compound concentration 1000.0 nM
[37] = target: Calcium/calmodulin-dependent protein kinase type II subunit delta (Homo sapiens) (UniProt Q13557); conditions: Compound concentration 1000.0 nM
[38] = target: Serine/threonine-protein kinase 35 (Homo sapiens) (UniProt Q8TDR2); conditions: Compound concentration 1000.0 nM
[39] = target: Myosin-IIIb (Homo sapiens) (UniProt Q8WXR4); conditions: Compound concentration 1000.0 nM
[40] = target: Protein kinase C delta type (Homo sapiens) (UniProt Q05655); conditions: Compound concentration 1000.0 nM
[41] = target: Calcium/calmodulin-dependent protein kinase type 1B (Homo sapiens, UniProt Q6P2M8); conditions: Compound concentration 1000.0 nM
[42] = target: Mitogen-activated protein kinase 8 (Homo sapiens) (UniProt P45983); conditions: Compound concentration 1000.0 nM
[43] = target: Cyclin-dependent kinase 8 (Homo sapiens) (UniProt P49336); conditions: Compound concentration 1000.0 nM
[44] = target: Tyrosine-protein kinase Mer (Homo sapiens) (UniProt Q12866); conditions: Compound concentration 1000.0 nM
[45] = target: Calcium/calmodulin-dependent protein kinase type 1G (Homo sapiens) (UniProt Q96NX5); conditions: Compound concentration 1000.0 nM

CCCCN(CCCC)C(=O)CN1C[C@H](c2cc(OC)c3c(c2)OCO3)[C@@H](C(=O)O)[C@@H]1CC(C)(C)CCC [ABT-546]
inactive: residual activity [1] 76.9% | residual activity [2] 88.4% | residual activity [3] 100% | residual activity [4] 100% | residual activity [5] 100% | inhibition [6] 21.3% | residual activity [7] 88.8% | residual activity [8] 100% | residual activity [9] 100% | residual activity [10] 100% | residual activity [11] 100% | residual activity [12] 96.5% | residual activity [13] 91.6% | residual activity [14] 100% | residual activity [15] 100% | residual activity [16] 100% | residual activity [17] 98.4% | residual activity [18] 100% | residual activity [19] 100% | residual activity [20] 100% | residual activity [21] 100% | residual activity [22] 80.9% | residual activity [23] 57.4% | residual activity [24] 100% | residual activity [25] 100% | residual activity [26] 100% | residual activity [27] 100% | residual activity [28] 80.7% | residual activity [29] 100% | residual activity [30] 100% | residual activity [31] 90.3% | residual activity [32] 100% | residual activity [33] 100% | residual activity [34] 61.2% | residual activity [35] 100% | residual activity [36] 63.2% | residual activity [37] 100% | residual activity [38] 100% | residual activity [39] 88.6% | residual activity [40] 100% | residual activity [41] 86.5% | residual activity [42] 100% | residual activity [43] 100% | residual activity [44] 100% | residual activity [45] 100%

CCCCN(CCCC)C(=O)CN1C[C@@H](c2cc(OC)c3c(c2)OCO3)[C@H](C(=O)O)[C@H]1CC(C)(C)CCC [A-545]
inactive: residual activity [1] 90.8% | residual activity [2] 100% | residual activity [3] 100% | residual activity [4] 100% | residual activity [5] 87% | inhibition [6] 21.3% | residual activity [7] 89.2% | residual activity [8] 87.9% | residual activity [9] 100% | residual activity [10] 95.8% | residual activity [11] 100% | residual activity [12] 88.7% | residual activity [13] 90.4% | residual activity [14] 80.1% | residual activity [15] 100% | residual activity [16] 87.2% | residual activity [17] 77.1% | residual activity [18] 100% | residual activity [19] 81.9% | residual activity [20] 82.4% | residual activity [21] 59.8% | residual activity [22] 89.7% | residual activity [23] 78.8% | residual activity [24] 100% | residual activity [25] 100% | residual activity [26] 96.6% | residual activity [27] 100% | residual activity [28] 89.2% | residual activity [29] 87.7% | residual activity [30] 100% | residual activity [31] 90.2% | residual activity [32] 98.1% | residual activity [33] 100% | residual activity [34] 86.7% | residual activity [35] 92.4% | residual activity [36] 67.9% | residual activity [37] 99.9% | residual activity [38] 100% | residual activity [39] 91% | residual activity [40] 98.2% | residual activity [41] 100% | residual activity [42] 92.1% | residual activity [43] 78% | residual activity [44] 100% | residual activity [45] 100%

Reference: ChEMBL document CHEMBL4507258 (2021)
